{
  "source": "patent US20110281289A1",
  "about": "“QUANTIFICATION OF ENZYME ACTIVITY BY MASS SPECTROMETRY USING IMMOBILIZED SUBSTRATES” (LUDWIG INSTITUTE FOR CANCER RESEARCH LTD., priority 2008, published 2011)",
  "assay_type_in_all_cases": "cell-based",
  "key": {"PI3K [1]": {"system": "PI3K", "test": "Multiplex kinase assay on immobilized full length protein substrates (pool 1, pool 2) with lysates of P31-Fuj AML cells, LC-MS readout", "set-up": "relative kinase activity (normalized to mean of control and treated, log 2 converted), phosphopeptide SMAD-1 RVESPVLPPVLVPR SEQ ID NO: 5: dose or concentration left out as unconfirmed", "experimental": "P31-Fuj AML cells were seeded at a density of 500000 cells/mL. […] Cells were washed twice in ice cold PBS containing 100 mM NaVO3 and 1 mM NaF and were subsequently harvested and lysed in the following lysis buffer: 40 mM Hepes pH 7.5, 120 mM NaCl, 1 mM EDTA, 10 mM pyrophosphate, 10 mM glycerophosphate, 50 mM NaF, 0.5 mM orthovanadate, 0.3% CHAPS, and complete protease inhibitors (Roche). […] After allowing the reactions to occur in the presence of ATP and Mg^2+, samples were trypsin digested and subject to LC-MS analysis. […] Data from a peptide kinase assay using the Aktide peptide (a peptide substrate with sequence RPRAATF—SEQ ID NO: 24—known to provide a readout of PI3K pathway activation) was compared with the data from a multiplex kinase assay using full length protein substrates."}, "PI3K [2]": {"system": "PI3K", "test": "Peptide kinase assay using the Aktide peptide (protocols of WO 07/127,767) with P31-Fuji total cell lysates", "conditions": "P31-Fuji cells treated with LY294002 before lysis, vs control", "excerpt": "Data from a peptide kinase assay using the Aktide peptide (a peptide substrate with sequence RPRAATF—SEQ ID NO: 24—known to provide a readout of PI3K pathway activation) was compared with the data from a multiplex kinase assay using full length protein substrates. For this, P31-Fuji cells (an acute myeloid leukaemia cell line) were lysed and the kinase activity in total cell lysates measured using the protocols disclosed in WO 07/127,767 or using the protocols disclosed herein. Before lysis, cells were divided into two groups—(1) control and (2) treated with LY294002 (an inhibitor of PI3K which controls downstream protein kinases that phosphorylate the Aktide)."}, "PI3K signalling activity": {"system": "PI3K signalling activity", "test": "Kinase reaction on immobilized BAD with lysates of serum-stimulated NIH-3T3 cells pre-treated or not with inhibitors, LC-MS readout", "conditions": "starved NIH-3T3 cells pre-treated with inhibitor, 10% fetal calf serum 5 minutes before lysis", "experimental": "Starved NIH-3T3 cells, pre-treated or not with the inhibitors Wortmannin (WM) or PD98059 (PD), were stimulated with 10% fetal calf serum for 5 minutes prior to cell lysis. Cell lysates were mixed with immobilized BAD and ATP/Mg^2+ and reactions allowed to occur at 37° C. for the indicated times. Reactions were stopped and beads washed to remove lysate components and to buffer exchange to 50 mM ammonium bicarbonate. Immobilized phosphorylated BAD was digested with trypsin and resultant peptides analysed by LC-MS and LC-MS/MS.\nMass spectrometry was used to multiplex the measurement of protein kinase activities, using BAD as a substrate for in vitro reactions. BAD is a known substrate of the protein kinase AKT/PKB, which is downstream of PI3K and upstream mTORC1. Mouse His-Tag-BAD protein was immobilized to SEPHAROSE® beads. In subsequent experiments, human proteins were synthesised with N-terminal GST and His tags separated by a PreScission protease cleavage site. Purification was performed with glutathione S-sepharose chromatography. […] These immobilized proteins were used as substrates for kinase reactions using total cell lysates as an enzyme source.\nStarved NIH-3T3 cells, pre-treated or not with the inhibitors WM or PD, were stimulated with 10% fetal calf serum for 5 minutes prior to cell lysis. Cell lysates were mixed with immobilized BAD and ATP/Mg^2+ and reactions allowed to occur at 37° C. for the times indicated in FIG. 3. Reactions were stopped, and the beads washed three times to remove lysate components and to buffer exchange to 50 mM ammonium bicarbonate. For each wash, beads were isolated from the reaction by magnetic separation using a magnet. Immobilised phosphorylated BAD was digested with trypsin and resultant peptides analysed by LC-MS and LC-MS/MS. […] These observed activities increased when serum was added to the medium prior to lysis and were sensitive to the addition of wortmannin (WM) but not the MEK inhibitor PD98059 (PD), thus arguing that these activities are a measure of WM target inhibition, probably PI3K signalling activity, a known target of WM, and are probably downstream PI3K."}, "[3]": {"conditions": "Pool 1, P31-Fuj AML cells, 10 mM LY204002 for 1 hr"}, "[4]": {"conditions": "Pool 2, P31-Fuj AML cells, 10 mM LY204002 for 1 hr"}, "[5]": {"conditions": "full length protein substrate, P31-Fuji cells treated with LY294002 before lysis, vs control"}},
  "data": [
    {"smiles": "O=c1cc(N2CCOCC2)oc2c(-c3ccccc3)cccc12", "note": "[Ly294002, LY294002]", "values": [
      {"measurement": "relative kinase activity (normalized, log 2), phosphopeptide Annexin MYGISLCQAILDETKGDYEK SEQ ID NO: 11", "setting": "PI3K [1]; [3]", "value": 0.429},
      {"measurement": "relative kinase activity (normalized, log 2), phosphopeptide Beta Catenin AAVSHWQQQSYLDSGIHSGATTTAPSLSGK SEQ ID NO: 12", "setting": "PI3K [1]; [3]", "value": "−1.337"},
      {"measurement": "relative kinase activity (normalized, log 2), phosphopeptide Beta Catenin TSMGGTQQQFVEGVR SEQ ID NO: 13", "setting": "PI3K [1]; [3]", "value": "−0.5836"},
      {"measurement": "relative kinase activity (normalized, log 2), phosphopeptide SMAD-1 HSEYNPQHSLLAQFR SEQ ID NO: 6", "setting": "PI3K [1]; [3]", "value": "−2.2905"},
      {"measurement": "relative kinase activity (normalized, log 2), phosphopeptide myc CHVSTHQHNYAAPPSTR SEQ ID NO: 7", "setting": "PI3K [1]; [3]", "value": 0.1282},
      {"measurement": "relative kinase activity (normalized, log 2), phosphopeptide myc FELLPTPPLSPSR SEQ ID NO: 8", "setting": "PI3K [1]; [3]", "value": 0.1492},
      {"measurement": "relative kinase activity (normalized, log 2), phosphopeptide myc FELLPTPPLSPSRR SEQ ID NO: 9", "setting": "PI3K [1]; [3]", "value": "−0.0685"},
      {"measurement": "relative kinase activity (normalized, log 2), phosphopeptide myc VKLDSVR SEQ ID NO: 10", "setting": "PI3K [1]; [3]", "value": -0.3467},
      {"measurement": "relative kinase activity (normalized to mean of control and treated, log 2 converted), phosphopeptide SMAD-1 RVESPVLPPVLVPR SEQ ID NO: 5", "setting": "PI3K [1]; Pool 1, P31-Fuj AML cells, LY204002 for 1 hr", "value": "−0.6559"},
      {"measurement": "relative kinase activity (normalized, log 2), phosphopeptide 4ebp1 TPPRDLPTIPGVTSPSSDEPPMEASQSHLR SEQ ID NO: 19", "setting": "PI3K [1]; [4]", "value": "−4.332"},
      {"measurement": "relative kinase activity (normalized, log 2), phosphopeptide S6 DIPGLTDTTVPR SEQ ID NO: 14", "setting": "PI3K [1]; [4]", "value": "−0.573"},
      {"measurement": "relative kinase activity (normalized, log 2), phosphopeptide S6 DIPGLTDTTVPRR SEQ ID NO: 15", "setting": "PI3K [1]; [4]", "value": 0.007685},
      {"measurement": "relative kinase activity (normalized, log 2), phosphopeptide foxo AVSMDNSNKYTK SEQ ID NO: 18", "setting": "PI3K [1]; [4]", "value": "−0.6542"},
      {"measurement": "relative kinase activity (normalized, log 2), phosphopeptide foxo HNLSLHSR SEQ ID NO: 17", "setting": "PI3K [1]; [4]", "value": "−0.1853"},
      {"measurement": "relative kinase activity (normalized, log 2), phosphopeptide foxo WPGSPTSR SEQ ID NO: 16", "setting": "PI3K [1]; [4]", "value": "−0.6519"},
      {"measurement": "relative kinase activity (normalized, log 2), phosphopeptide p53 ALPNNTSSSPQPK SEQ ID NO: 21", "setting": "PI3K [1]; [4]", "value": "−5.826"},
      {"measurement": "relative kinase activity (normalized, log 2), phosphopeptide p53 CSDSDGLAPPQHLIR SEQ ID NO: 22", "setting": "PI3K [1]; [4]", "value": "−3.078"},
      {"measurement": "relative kinase activity (normalized, log 2), phosphopeptide p53 RALPNNTSSSPQPK SEQ ID NO: 23", "setting": "PI3K [1]; [4]", "value": "−1.587"},
      {"measurement": "relative kinase activity (normalized, log 2), phosphopeptide p53 SVTCTYSPALNK SEQ ID NO: 20", "setting": "PI3K [1]; [4]", "value": "−2.051"},
      {"measurement": "reduction of kinase activity towards Ser94 on the substrate 4EBP1", "setting": "PI3K [1]; [5]", "value": 95, "unit": "%"},
      {"measurement": "reduction of kinase activity towards Ser121 on the substrate p53", "setting": "PI3K [1]; [5]", "value": 99, "unit": "%"},
      {"measurement": "reduction on the kinase activity towards the Aktide", "setting": "PI3K [2]", "value": "about 85%"}
    ]},
    {"smiles": "COc1cccc(-c2cc(=O)c3ccccc3o2)c1N", "note": "[PD98059]", "values": [
      {"measurement": "kinase activity towards BAD pS136 (SEQ ID NO: 4)", "setting": "PI3K signalling activity", "value": "not sensitive"},
      {"measurement": "kinase activity towards BAD pS170 (SEQ ID NO: 3)", "setting": "PI3K signalling activity", "value": "not sensitive"},
      {"measurement": "kinase activity towards BAD pS136 (SEQ ID NO: 4)", "setting": "PI3K signalling activity; listed as PD", "value": "sensitive to the addition of WM but not PD"},
      {"measurement": "kinase activity towards BAD pS170 (SEQ ID NO: 3)", "setting": "PI3K signalling activity; listed as PD", "value": "sensitive to the addition of WM but not PD"}
    ]}
  ]
}
